The test system of one series is Cor26 CRH mice. Put plainly: REMS activity by EEG/EMG sleep recording in Cor26 CRH mice. The following applies: for REMS levels / REMS activity: CRH-overexpressing Cor26 CRH mice, 50 mg/kg/d via drinking water.
Series [1] deals with control littermates (CL). Put plainly: REMS activity by EEG/EMG sleep recording in control littermates (CL) of Cor26 CRH mice. In kind it is in vivo. To be noted: CL animals of Cor26 CRH line; 50 mg/kg/d via drinking water. As for the experimental part:
(§1) Experiments were conducted with two different mouse lines of excessive central CRH secretion and their respective control littermates (CL). Mice of the CRH-COE^CNS line are characterised by CRH-overexpression within the whole CNS, whereas mice of the Cor26 CRH line display a CRH-overexpression specific to CRH-ergic neurons of the CNS. Three different CRHR1 antagonists were tested. […] In all cases, animals were left to recover from EEG/EMG-electrode implantation for two weeks, after which two days of baseline recording were initiated. Treatment with CRH-R1 antagonist or respective vehicle control commenced thereafter for five consecutive days. Antagonists were applied through the drinking water at a daily dose of 50 mg/kg body weight. EEG and EMG recordings were manually scored as wake, non-REMS (NREMS), and REMS in four second epochs by an experienced evaluator.

For another series, the system named is CRH-COE^CNS mice. The series can be described thus: REMS activity by EEG/EMG sleep recording in CRH-COE^CNS mice. To be noted: for REMS activity: 50 mg/kg/d via drinking water, treatment days vs baseline, significant from treatment day two (DMP-696 P<0.05; SSR125543 P≤0.035).
In series [2] the test system is control littermates (CL). The series can be described thus: REMS activity by EEG/EMG sleep recording in control littermates (CL) of CRH-COE^CNS mice. In kind it is in vivo. To be noted: CL mice of CRH-COE^CNS line; 50 mg/kg/d via drinking water. As for the experimental part: as §1

Each structure is given as a SMILES string.

For `CCC(CC)Oc1cc(C)nc(Oc2c(C)cc(C)cc2C)c1C` [CP-316,311], the “REMS levels / REMS activity” value is reported as “weak” in the series with Cor26 CRH mice (50 mg/kg/day) and “suppressed” in the series on Cor26 CRH mice (listed as CP-316311, 50 mg/kg/day). Also, in the series with Cor26 CRH mice (Cor26 CRH mice, baseline vs treatment day three, P=0.006), the “REMS levels, area under the curve (AUC) within the light period” value is reported as “significant decrease”. Moreover, the “REMS levels in control littermates” value in the series with control littermates (CL) [1] was “no significant effect”.
Regarding `COCC(COC)Nc1nc(C)nc2c(-c3ccc(Cl)cc3Cl)c(C)nn12` [DMP-696], the “treatment day of strongest suppression of REMS activity” value in the series on CRH-COE^CNS mice (CRH-COE^CNS animals, 50 mg/kg/d) is listed as “treatment day three”. Also, the “REMS suppression relative to baseline REMS-levels of CL” value in the series on CRH-COE^CNS mice (CRH-COE^CNS mice, 50 mg/kg/d) was “never exceeded baseline REMS-levels of CL”. For the same molecule, the REMS activity result in the series with CRH-COE^CNS mice (CRH-COE^CNS mice, 50 mg/kg/day) is recorded as “significant decrease”; in the series with CRH-COE^CNS mice (CRH-COE^CNS mice, listed as DMP696, 50 mg/kg/day), “suppressed”. In addition, the “REMS activity in control littermates” value in the series on control littermates (CL) [2] is listed as “only a mild suppression”.

Source of the values: patent US10837062B2, “Method for predicting a treatment response to a CRHR1 antagonist and/or a V1B antagonist in a patient with depressive and/or anxiety symptoms” (Max-Planck-Gesellschaft zur Förderung der Wissenschaften …, priority 2013, dated 2020).
